Reference: ChEMBL document CHEMBL5550081, “Is it still worth renewing nucleoside anticancer drugs nowadays?” (Eur J Med Chem, 2024)

Key:
A549 [1] = test: Cytotoxicity against human A549 cells assessed as reduction in cell growth incubated for 24 hrs by MTT assay; format: functional, cell-based; settings: A549, 24 h
MDA-MB-231 [2] = test: Cytotoxicity against human MDA-MB-231 cells assessed as reduction in cell growth incubated for 24 hrs by MTT assay; format: functional, cell-based; settings: MDA-MB-231, 24 h
MCF7 [3] = test: Cytotoxicity against human MCF7 cells assessed as reduction in cell growth incubated for 24 hrs by MTT assay; format: functional, cell-based; settings: MCF7, 24 h
HCT-116 [4] = test: Antiproliferative activity against human HCT-116 cells assessed as reduction in cell growth incubated for 72 hrs by SRB assay; format: functional, cell-based; settings: HCT-116, 72 h
A549 [5] = test: Antiproliferative activity against human A549 cells assessed as reduction in cell growth incubated for 72 hrs by SRB assay; format: functional, cell-based; settings: A549, 72 h
SNU-638 = test: Antiproliferative activity against human SNU-638 cells assessed as reduction in cell growth incubated for 72 hrs by SRB assay; format: functional, cell-based; settings: SNU-638, 72 h
MDA-MB-231 [6] = test: Antiproliferative activity against human MDA-MB-231 cells assessed as reduction in cell growth incubated for 72 hrs by SRB assay; format: functional, cell-based; settings: MDA-MB-231, 72 h
PC-3 [7] = test: Antiproliferative activity against human PC-3 cells assessed as reduction in cell growth incubated for 72 hrs by SRB assay; format: functional, cell-based; settings: PC-3, 72 h
SK-HEP1 [8] = test: Antiproliferative activity against human SK-HEP1 cells assessed as reduction in cell growth incubated for 72 hrs by SRB assay; format: functional, cell-based; settings: SK-HEP1, 72 h
SARS-CoV-2 = test: Antiviral activity against SARS-CoV-2 infected in African green monkey Vero E6 cells assessed as inhibition of viral replication by qRT-PCR analysis; format: functional, organism-based; settings: Severe acute respiratory syndrome coronavirus 2, Vero C1008
HCT-116 [9] = test: Cytotoxicity against human HCT-116 cells; format: functional, cell-based
SK-HEP1 [10] = test: Cytotoxicity against human SK-HEP1 cells; format: functional, cell-based
A549 [11] = test: Cytotoxicity against human A549 cells; format: functional, cell-based
L929 = test: Cytotoxicity against mouse L929 cells assessed as reduction in cell viability; format: functional, cell-based
HeLa [12] = test: Antiproliferative activity against human HeLa cells assessed as reduction in cell viability incubated for 24 hrs by MTT assay; format: functional, cell-based
Ishikawa = test: Cytotoxicity against human Ishikawa cells; format: functional, cell-based
PANC-1 [13] = test: Antiproliferative activity against human PANC-1 cells assessed as reduction in cell viability incubated for 24 hrs by MTT assay; format: functional, cell-based; settings: PANC-1, 24 h
HeLa [14] = test: Cytotoxicity against human HeLa cells; format: functional, cell-based
MCF7 [15] = test: Antiproliferative activity against human MCF7 cells assessed as cell growth inhibition incubated for 48 hrs by MTT assay; format: functional, cell-based; settings: MCF7, 48 h
PRMT5/MEP50 complex = PRMT5/MEP50 complex (Homo sapiens, UniProt O14744); test: Inhibition of PRMT5/MEP50 (unknown origin); format: cell-based, HCC4006
PRMT5/MEP50 complex, sequence (O14744 whole entry): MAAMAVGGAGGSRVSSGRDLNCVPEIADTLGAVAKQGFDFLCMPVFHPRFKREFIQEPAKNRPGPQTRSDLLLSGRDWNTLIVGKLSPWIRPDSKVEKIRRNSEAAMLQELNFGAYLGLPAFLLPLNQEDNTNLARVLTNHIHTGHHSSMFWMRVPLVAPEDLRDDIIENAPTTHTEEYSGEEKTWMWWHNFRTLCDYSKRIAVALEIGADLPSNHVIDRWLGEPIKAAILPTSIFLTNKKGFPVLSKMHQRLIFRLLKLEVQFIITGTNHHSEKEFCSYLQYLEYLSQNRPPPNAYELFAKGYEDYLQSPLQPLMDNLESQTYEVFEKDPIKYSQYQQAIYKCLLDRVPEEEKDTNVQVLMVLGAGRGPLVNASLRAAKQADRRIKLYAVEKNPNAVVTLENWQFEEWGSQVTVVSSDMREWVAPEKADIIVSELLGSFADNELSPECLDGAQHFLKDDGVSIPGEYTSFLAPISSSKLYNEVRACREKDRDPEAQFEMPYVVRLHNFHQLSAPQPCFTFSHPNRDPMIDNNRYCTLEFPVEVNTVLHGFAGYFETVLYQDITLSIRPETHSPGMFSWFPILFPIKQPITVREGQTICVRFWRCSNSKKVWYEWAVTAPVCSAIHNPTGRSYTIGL
PRMT5/MEP50 complex, sequence (Q9BQA1 whole entry, further chain): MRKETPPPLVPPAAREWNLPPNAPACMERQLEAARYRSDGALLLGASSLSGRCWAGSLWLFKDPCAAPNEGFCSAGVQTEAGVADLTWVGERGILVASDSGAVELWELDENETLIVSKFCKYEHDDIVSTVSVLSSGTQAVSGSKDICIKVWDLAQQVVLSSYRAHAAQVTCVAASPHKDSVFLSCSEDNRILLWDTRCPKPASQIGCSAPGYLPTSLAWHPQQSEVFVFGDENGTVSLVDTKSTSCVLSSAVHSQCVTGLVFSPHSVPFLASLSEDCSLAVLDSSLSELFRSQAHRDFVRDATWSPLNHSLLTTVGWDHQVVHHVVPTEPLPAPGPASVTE

Z-138 = test: Antiproliferative activity against human Z138 cells assessed as cell growth inhibition incubated for 48 hrs by MTT assay; format: functional, cell-based; settings: Z-138, 48 h
MCF7 [16] = test: cells; settings: Homo sapiens, MCF7, 48 h
IMR-32 = test: Cytotoxicity against human IMR-32 cells assessed as reduction in cell viability incubated for 48 hrs by MTT assay; format: functional, cell-based; settings: IMR-32, 48 h
PC-3 [17] = test: cells; settings: Homo sapiens, PC-3, 48 h
PC-3 [18] = test: Antiproliferative activity against human PC-3 cells assessed as reduction in cell growth incubated for 24 hrs by MTT assay; format: functional, cell-based; settings: PC-3, 24 h
HCT-116 [19] = test: Cytotoxicity against human HCT-116 cells assessed as reduction in cell growth incubated for 72 hrs by MTT assay; format: functional, cell-based; settings: HCT-116, 72 h
U-937 = test: Cytotoxicity against human U-937 cells assessed as reduction in cell growth incubated for 72 hrs by MTT assay; format: functional, cell-based; settings: U-937, 72 h
[20] = Inhibition of Hepatitis C virus NS5B polymerase; parameters: species or system Hepacivirus hominis
A549 [21] = test: Cytotoxicity against human A549 cells assessed as reduction in cell viability measured for 48 hrs by MTT assay; format: functional
MCF7 [22] = test: Cytotoxicity against human MCF7 cells assessed as reduction in cell viability measured for 48 hrs by MTT assay; format: functional
MDA-MB-231 [23] = test: Anticancer activity against human MDA-MB-231 cells; format: functional, cell-based
U-87 MG = test: Cytotoxicity against human U-87 MG cells; format: functional, U-87MG ATCC
PANC-1 [24] = test: Cytotoxicity against human PANC-1 cells; format: functional

CC(=O)Nc1ccn(-c2nnc(Cn3cnc4c3c(=O)n(C)c(=O)n4C)o2)c(=O)n1
IC50 (A549 [1]): 20400 nM
IC50 (MDA-MB-231 [2]): 24700 nM
IC50 (MCF7 [3]): 25200 nM

C#Cc1cn([C@@H]2S[C@H](CO)[C@@H](O)[C@H]2O)c2ncnc(N)c12
IC50 (HCT-116 [4]): 30 nM
IC50 (A549 [5]): 60 nM
IC50 (SNU-638): 30 nM
IC50 (MDA-MB-231 [6]): 50 nM
IC50 (PC-3 [7]): 4 nM
IC50 (SK-HEP1 [8]): 50 nM

[2H]C([2H])(O)[C@H]1O[C@@](C#N)(c2ccc3c(N)ncnn23)[C@H](O)[C@@H]1O
EC50 (SARS-CoV-2): 250 nM

Nc1ncnc2c1c1sc3c4sccc4sc3c1n2[C@H]1C[C@@H](O)[C@@H](CO)O1
IC50 (HCT-116 [9]): 1910 nM
IC50 (SK-HEP1 [10]): 480 nM
IC50 (A549 [11]): 14200 nM

O=c1[nH]c(=O)n(C[C@H](O)CO)cc1C#Cc1cc2ccccc2c2ccccc12
IC50 (L929): 38400 nM
IC50 (HeLa [12]): 39300 nM
IC50 (Ishikawa): 50200 nM
IC50 (PANC-1 [13]): 39300 nM
IC50 (HeLa [14]): 39300 nM

Cc1ncnc2c1ccn2[C@@H]1O[C@@H]2[C@H](Cc3ccc4cc(Br)c(N)nc4c3)OC[C@]2(O)[C@H]1O
IC50 (MCF7 [15]): 3 nM
IC50 (PRMT5/MEP50 complex): 0.8 nM
IC50 (Z-138): 15 nM

C[C@H](CCC(=O)OCc1cn(C[C@H]2O[C@@H](n3ccc(=O)[nH]c3=O)[C@@H]3OC(C)(C)O[C@@H]32)nn1)[C@H]1CC[C@H]2[C@@H]3[C@H](O)C[C@@H]4C[C@H](O)CC[C@]4(C)[C@H]3C[C@H](O)[C@]12C
IC50 (MCF7 [16]): 8080 nM
IC50 (IMR-32): 16800 nM
IC50 (HeLa [12]): 96000 nM
IC50 (PC-3 [17]): 17900 nM
IC50 (PC-3 [18]): 17900 nM

Nc1ncnc2c1ncn2Cc1ccc(-c2cn(CCCCCCC(=O)NO)nn2)cc1
IC50 (HCT-116 [19]): 17400 nM
IC50 (U-937): 1320 nM

Nc1ncnc2c1ncn2[C@@H]1OC2(CC[C@H]2O)[C@@H](O)[C@H]1O (stereo not given in full)
IC50 (PRMT5/MEP50 complex): 900 nM

C#C[C@@]1(N)[C@H](O)[C@@H](CO)O[C@H]1n1cnc2c(=O)[nH]c(N)nc21
IC50 [20]: 1100 nM

CCCCCCCCCCCCc1ccc(-n2cc(CNCCO)nn2)cc1
IC50 (PANC-1 [13]): 4900 nM
IC50 (PC-3 [18]): 11000 nM

C=C(N)NCCOc1cccc2c1Nc1nc(=O)n([C@@H]3O[C@H](CO)[C@@H](O)[C@H]3O)cc1O2
CC50 (A549 [21]): 800 nM
CC50 (MCF7 [22]): 4300 nM

[N-]=[N+]=N[C@@H]1[C@@H](O)[C@H](n2c(-c3c4ccccc4cc4ccccc34)nc3ccccc32)O[C@@H]1CO
IC50 (MDA-MB-231 [23]): 420 nM

COc1cccc2c1C(=O)c1c(O)c3c(c(O)c1C2=O)C[C@@](O)(C(=O)CO)C[C@@H]3O[C@H]1C[C@H](N)[C@H](O)[C@H](C)O1 [DOXORUBICIN]
IC50 (MCF7 [16]): 440 nM
CC50 (A549 [21]): 30 nM
IC50 (IMR-32): 43 nM
CC50 (MCF7 [22]): 900 nM
IC50 (PC-3 [17]): 336 nM

Nc1ccn([C@@H]2O[C@H](CO)[C@@H](O)C2(F)F)c(=O)n1 [GEMCITABINE]
IC50 (L929): 230 nM
IC50 (Ishikawa): 20300 nM
IC50 (HeLa [14]): 240 nM

Nc1ccn([C@@H]2S[C@H](CO)[C@@H](O)[C@@H]2O)c(=O)n1 [THIARABINE]
CC50 (U-87 MG): 590 nM
CC50 (PANC-1 [24]): 590 nM
